Experimental data reported in publication PMC3798069 (Journal of medicinal chemistry, 2012).
Marks after values point to notes of the source that are not given here.

Columns and labels:
Format in all cases: cell-based
CqsS C170Y = CqsS C170Y (Vibrio cholerae serotype O1, UniProt Q9KM66, C170Y); assay: Light-based agonist bioassay with CqsS C170Y mutant strain; conditions: at 50,000 nM
wild-type CqsS = wild-type CqsS (Vibrio cholerae serotype O1, UniProt Q9KM66); conditions: for QS activity (in words): tested up to 50,000 nM; for maximal % response at the maximum concentration tested: at 50,000 nM, with respect to CAI-1 = 100%
CqsS C170A = CqsS C170A (Vibrio cholerae serotype O1, UniProt Q9KM66, C170A); assay: Light-based agonist bioassay with CqsS C170A mutant strain

Structure (SMILES): CCCCCCCCOC(=O)C(O)CC (stereo not shown) [compound 9, Octyl 2-hydroxybutanoate]
- maximal % response at the maximum concentration tested (CqsS C170Y): 66 ^c %

Structure (SMILES): CCC(O)C(=O)OCCCCCc1ccccc1 (stereo not shown) [compound 38, 5-Phenylpentyl 2-hydroxybutyrate]
- maximal % response at the maximum concentration tested (CqsS C170Y): 19 ^c %

Structure (SMILES): CCCCCCCOC(=O)C(O)CC (stereo not shown) [compound 19, Heptyl 2-hydroxybutanoate]
- fold less active (higher EC50) than C8-ester-CAI-1 (9) (wild-type CqsS): 2 fold

Structure (SMILES): CCC(O)C(=O)O (stereo not shown) [2-hydroxybutyric acid]
- QS activity (in words) (wild-type CqsS): no QS activity

Structure (SMILES): CC/C=C/CCCCOC(=O)C(O)CC (stereo not shown) [compound 34, (E)-Oct-5-enyl 2-hydroxybutanoate]
- fold less active (higher EC50) than C8-ester-CAI-1 (9) (wild-type CqsS): > 4 fold

Structure (SMILES): CCc1ccccc1CCCOC(=O)C(O)CC (stereo not shown) [compound 49, 3-(o-Ethyl-phenyl)propyl 2-hydroxybutyrate]
- fold less active (higher EC50) than C8-ester-CAI-1 (9) (wild-type CqsS): > 278 fold
- maximal % response at the maximum concentration tested (wild-type CqsS): 28 ^c %
- QS activity (in words) (wild-type CqsS): very weak responses

Structure (SMILES): CCCCCc1cccc(COC(=O)C(O)CC)c1 (stereo not shown) [compound 46, 1-(m-Pentyl-phenyl)methyl 2-hydroxybutyrate]
- fold less active (higher EC50) than C8-ester-CAI-1 (9) (wild-type CqsS): > 9 fold

Structure (SMILES): CCCCC/C=C/COC(=O)C(O)CC (stereo not shown) [compound 26, (E)-Oct-2-en-1-yl 2-hydroxybutanoate]
- fold more active (lower EC50) than C8-ester-CAI-1 (9) (wild-type CqsS): 3 fold

Structure (SMILES): CCC/C=C/CCCOC(=O)C(O)CC (stereo not shown) [compound 32, (E)-Oct-4-enyl 2-hydroxybutanoate]
- fold less active (higher EC50) than C8-ester-CAI-1 (9) (wild-type CqsS): 1.5 fold

Structure (SMILES): CCCCc1ccccc1COC(=O)C(O)CC (stereo not shown) [compound 44, 1-(o-Butyl-phenyl)methyl 2-hydroxybutyrate]
- fold less active (higher EC50) than C8-ester-CAI-1 (9) (wild-type CqsS): > 278 fold
- QS activity (in words) (wild-type CqsS): very weak responses

Structure (SMILES): CCOCCOCCOC(=O)C(O)CC (stereo not shown) [compound 23, 2-Hydroxy-2-(2-ethoxyethoxy)ethylbutanoate]
- maximal % response at the maximum concentration tested (wild-type CqsS): 31 ^c %
- QS activity (in words) (wild-type CqsS): only minimal QS activity

Structure (SMILES): CCCCCCOCCOC(=O)C(O)CC (stereo not shown) [compound 24, 2-(Hexyloxy)ethyl 2-hydroxybutanoate]
- fold less active (higher EC50) than C8-ester-CAI-1 (9) (wild-type CqsS): > 13 fold

Structure (SMILES): CCCCCCOC(=O)C(O)CC (stereo not shown) [compound 18, Hexyl 2-hydroxybutanoate]
- fold less active (higher EC50) than C8-ester-CAI-1 (9) (wild-type CqsS): greater than 4 fold

Structure (SMILES): CCCCCCCCCCOC(=O)C(O)CC (stereo not shown) [compound 21, Decyl 2-hydroxybutanoate]
- fold less active (higher EC50) than C8-ester-CAI-1 (9) (wild-type CqsS): greater than 4 fold

Structure (SMILES): CCCCCCCCCC(=O)[C@@H](O)CC [compound 1, S-3-hydroxytridecan-4-one, reference compound]
- % Response (percent maximal bioluminescence) (CqsS C170A; with respect to CAI-1 set at 100%): 100±44%
- maximal % response at the maximum concentration tested (CqsS C170Y): 20 ^c %

Structure (SMILES): CCCCCOCCOC(=O)C(O)CC (stereo not shown) [compound 22, 2-(Pentyloxy)ethyl 2-hydroxybutanoate]
- fold less active (higher EC50) than C8-ester-CAI-1 (9) (wild-type CqsS): > 13 fold

Structure (SMILES): CCC(O)C(=O)OCCCCc1ccccc1 (stereo not shown) [compound 37, 4-Phenylbutyl 2-hydroxybutyrate]
- maximal % response at the maximum concentration tested (CqsS C170A; at 50,000 nM): 16 ^c %
- maximal % response at the maximum concentration tested (CqsS C170Y): 22 ^c %

Structure (SMILES): CCCCCCCCCOC(=O)C(O)CC (stereo not shown) [compound 20, Nonyl 2-hydroxybutanoate]
- fold more active (lower EC50) than C8-ester-CAI-1 (9) (wild-type CqsS): 2 fold

Structure (SMILES): CCCC/C=C/CCOC(=O)C(O)CC (stereo not shown) [compound 29, (E)-Oct-3-en-1-yl 2-hydroxybutanoate]
- fold less active (higher EC50) than C8-ester-CAI-1 (9) (wild-type CqsS): > 4 fold

Structure (SMILES): CCCCCCCCO [1-octanol]
- QS activity (in words) (wild-type CqsS): no QS activity

Structure (SMILES): CCCCOC(=O)C(O)CC (stereo not shown) [compound 17, Butyl 2-hydroxybutanoate]
- maximal % response at the maximum concentration tested (wild-type CqsS): 23 ^c %
- QS activity (in words) (wild-type CqsS): nearly complete loss of QS activity
